According to patent publication US20250120394A1, “SILANE SURFACTANT FOR AGRICULTURAL USE” (MOMENTIVE PERFORMANCE MATERIALS INC., priority 2023, published 2025):
Structures can show the parent of a compound that is named as a salt.

Experiments:
Format in all cases: in vivo
[1] = test system: Redroot pigweed (Amaranthus retroflexus, EPPO Code: AMARE); assay: Effect of adjuvant on performance of 2,4-D Amine, lab spray trial, visual weed control; settings: 2,4-D amine 0.25 wt % alone, no adjuvant
Experimental: (§1) Spray Protocol: A lab spray trial was conducted to evaluate the effect of the silane compositions in accordance with the present technology on the performance of various herbicides.
(§2) Target weeds were grown from seed, under controlled conditions in a “Caron Model 7301-50-2” Growth chamber using simulated full sunlight. Sprays were applied to the target weeds at the 4-6 leaf growth stage using a DeVries Generation 4—Research Track Sprayer with a T-Jet 8002E nozzle at an equivalent spray volume of 100 L/ha.
SIL-8 was compared to a conventional trisiloxane alkoxylate (TSA-1) as a spray adjuvant, to improve the performance of 2,4-D Amine (herbicide) on AMARE. The spray protocol is described above. The 2,4-D Amine was applied at a sub lethal dose (25% of label rate) to show the impact of the adjuvant on performance. Assessment of weed control was made by a visual observation as compared to an untreated check.

[2] = test system: red banded stink bug (Piezodorus guildinii); assay: Field trial: control of stink bug on green beans with Cefanol acephate plus adjuvant; settings: Cefanol acephate 0.50 kg/ha alone
Experimental: A composition of the present invention (SIL-8) was compared to a conventional trisiloxane alkoxylate (TSA-2) for the improvement of the insecticide acephate in the control of stink-bug.
The experiment was conducted with a randomized block design, with 6 treatments (including the untreated check) and 4 repetitions. Each plot was of 12 m^2 in area. The data obtained were subjected to analysis of variance and the average of the treatments compared using the Tukey test to 5% probability test.
During the trial there were […] evaluation periods: 0, 3, 5 and 7 Days After Application (DAA), for determining the number of red banded stink bugs in each plot evaluated.
The treatments were applied using a CO2 pressurized Backpack sprayer, with 4 nozzles spaced 50 cm between each one. Nozzles type XR11002 (Flat Fan) and a spray volume 150 L·ha.

[3] = test system: Yellow Foxtail (Setaria pumila); assay: Control of Yellow Foxtail with glyphosate-isopropylamine salt, visual weed control; settings: glyphosate-isopropylamine salt 0.75% a.i. alone, adjuvant 0
Experimental: as §1, §2
Glyphosate-isopropylamine salt was applied at 0.75% a.i. to Yellow foxtail at a 15 cm growth-stage. The spray mixtures were applied either as herbicide alone, or in combination with the silane compositions SIL-6, SIL-9 and SIL-12 at an equivalent spray volume of 100 L/ha. A visual assessment of weed control was made at 7 and 14 Days After Treatment (DAT). The application method is the same as previously described.

SMILES: CNC.O=C(O)COc1ccc(Cl)cc1Cl [2,4-D amine, 2,4-D Amine]
- Weed control of AMARE, 7-DAT [1]: 46%
- Weed control of AMARE, 14-DAT [1]: 55%

SMILES: COP(=O)(NC(C)=O)SC (centres unmarked) [Acephate]
- Eff. %, 1 DAA [2]: 76.0%
- Eff. %, 3 DAA [2]: 60.0%
- Eff. %, 5 DAA [2]: 45.5%
- Eff. %, 7 DAA [2]: 63.6%
- Number of red banded stink bug, 1 DAA [2]: 0.5 b
- Number of red banded stink bug, 3 DAA [2]: 0.7 b
- Number of red banded stink bug, 5 DAA [2]: 0.5 a
- Number of red banded stink bug, 7 DAA [2]: 0.3 b
- Eff. %, 0 DAA ([2]; 0 DAA (initial)): 0.0%
- Number of red banded stink bug, 0 DAA ([2]; 0 DAA (initial)): 1.8 a

SMILES: O=C(O)CNCP(=O)(O)O [Glyphosate, Glyphosate-isopropylamine salt]
- Weed control of Yellow foxtail, 7 DAT [3]: 20
- Weed control of Yellow foxtail, 14 DAT [3]: 92
